Assay results from patent publication US9416115B2, “Fused heterocyclic compounds as ion channel modulators” (Gilead Sciences, Inc., priority 2013, dated 2016).

What was measured:
hNav1.3 (SCN3A) = biological target: T1, hNav1.3 (SCN3A) (Homo sapiens, UniProt Q9NY46); assay: Voltage-dependent inhibition of the Nav1.3 sodium channel; assay type: cell-based; details: voltage-dependent block of peak current, read-out: Nav 1.3-VDB 1 uM
T1 construct: expressed in transfected cells
Description: HEK-293 cells stably expressing wild-type (WT) hNav1.3 (SCN3A NCBI # NP 001075, SCN1B NCBI # NM 001037.4, SCN2B NCBI # NM 004588.2) were used to record INa. Cells are maintained with standard tissue culture procedures and stable channel expression is maintained with 800 ug/mL G418 and 3 ug/mL Puromycin in the culture medium. Unless otherwise noted, all reagents are purchased from Sigma-Aldrich (St Louis, Mo., U.S.A.).
Assays measuring Voltage-Dependent Block (VDB) of Nav1.3 are performed on an automated electrophysiology platform, QPatch 16X or QPatch HT (Sophion Bioscience, Copenhagen, Denmark), using the whole cell patch clamp technique to measure currents through the cell membrane. Series resistance compensation is set to 100% and series resistance and whole-cell compensation are performed automatically. Currents stored in the Sophion Bioscience Oracle database (Sophion Bioscience, Copenhagen, Denmark). Analysis is performed using QPatch Assay software and data are compiled in Excel 2010 (Microsoft, Seattle, Wash., U.S.A.).
The internal (pipette) solution consists of (in mM) 105 CsF, 10 NaF, 20 CsCl, 2 EGTA, 10 HEPES, 10 Dextrose with a pH of 7.35 and osmolarity of 300 mOsmol/kg. The external (bath) solution contains in (mM): 80 NaCl, 60 Choline-Cl, 4 KCl, 1.8 CaCl2, 1 MgCl2, 10 dextrose, 10 HEPES, with a pH of 7.35 and osmolarity of 310 mOsmol/kg. Experiments are carried out at 23-25° C.
Compound stocks are routinely made by the Gilead Sample Bank in vials to 10 mM in dimethyl sulfoxide (DMSO). In some cases, when compounds are not soluble in DMSO, they are made in 100% ethanol. Stocks are sonicated as necessary. Compounds are diluted in extracellular solution using a MicroLab Nimbus (Hamilton Robotics, Reno, Nev.) to 1 μM in glass vials and transferred to glass well plates before robotic addition to the cells.
Cells are allowed to stabilize for 10 min after establishment of the whole-cell configuration before current is measured. The test compound is applied 3 times at 120 second intervals to allow for equilibration. Currents were leak subtracted using a P/4 procedure, low-pass Bessel filtered at 5 kHz and digitized at 25 kHz. Results are presented as mean percentage inhibition.
Voltage-dependent block of Nav1.3 peak current was measured during a voltage step to 0 mV (20 ms) following a voltage step pre-conditioning steps (−55 mV for 10 sec followed by −120 mV for 10 ms). The holding potential was −120 mV and this voltage protocol induces half maximal inactivation of Nav1.3. The voltage protocol for VDB was performed every 45 seconds in the absence and presence of compound and percentage inhibition was calculated with respect to the compound free condition.

[1] = system: Ischemia-Induced ST Segment Elevation in Anesthetized Rabbits; assay: Ischemia-induced ST segment elevation in anesthetized rabbits; assay type: in vivo, New Zealand rabbits; details: iv infusion; 15 min LAD ischemia after 30 min of compound administration
Description: This study was undertaken to determine the anti-ischemic effects of compounds of the present disclosure in an in vivo rabbit model.
Female New Zealand rabbits (3.0-4.0 kg) were purchased from Western Oregon Rabbitry. Animals were housed on a 12-h light and dark cycle and received standard laboratory chow and water. All experiments were performed in accordance with the Guide for the Care and Use of Laboratory Animals published by The National Research Council and with the experimental protocol approved by the Institutional Animal Care Committee of Gilead Sciences, Inc.
(§1) Rabbits were anesthetized with ketamine (35 mg/kg) and xylazine (5 mg/kg) intramuscular injection (im). A tracheotomy was performed and the trachea was intubated with an endotracheal tube. The animal was ventilated with room air supplemented with oxygen using a pressure control animal ventilator (Kent Scientific Corp., Torrington, Conn.) at a respiratory rate of 40 strokes/min and peak inspiration pressure of 10 mmH2O, which was adjusted to keep blood gases and pH within the physiological range (iSTAT clinic analyzer, Heska Corp.; Waukesha, Wis.). The left femoral artery was cannulated for the measurement of blood pressure (BP). Blood samples were also withdrawn from femoral artery. The right external jugular vein was cannulated for drug/vehicle administration. Needle electrodes were inserted subcutaneously into the limbs for recording of the surface electrocardiogram (ECG).
The heart was exposed via an incision in the 4th intercostal space (4th and/or 5th ribs were cut for a clear surgical vision). The chest was opened and a pericardial cradle was formed using 4 retractors. A coronary artery occluder, comprised of a snare made of 5 cm PE-10 tubing with a 6-0 Prolene polypropylene suture in it, was placed loosely around the left anterior descending artery (LAD) at its origin. Two unipolar electrodes, made with teflon coated silver wire attached to a small patch of filter paper, were attached on the surface of the ischemic and normal regions of the left ventricle to record epicardial electrocardiogram.
(§2) Reference electrodes were placed in the open incision of the neck. The body temperature of the animal was monitored via a rectal thermometer and maintained at 37-40° C. by adjusting the surface temperature of the surgical table. Regional ischemia (15 min) was induced by ligating the LAD followed by 15 min of reperfusion caused by releasing the ligation. The heart was excised at the end of the experiment and the LAD was re-ligated. The ischemic area was visualized by perfusing the heart with 1% Evans blue in saline and calculated as a percentage of total ventricular weight. Rabbits with ischemic area less than 10% or larger than 25% were excluded from the analysis. Animals were randomly assigned to vehicle and test compound groups. Test compounds were dissolved in 15% NMP, 10% Solutol and 75% de-ionized water (dH2O). Test compounds were given as an iv infusion at a rate targeted to reach plasma concentrations of 1 μM. After 30 min of compound administration the heart was subjected to 15 min of ischemia followed by 15 min of reperfusion.

[2] = Plasma concentration in the rabbit ischemia study; assay type: in vivo, New Zealand rabbits; details: iv infusion targeted to 1 uM plasma
Description: as §1, §2

T1 sequence (Q9NY46 1-1951 isoform Q9NY46-2): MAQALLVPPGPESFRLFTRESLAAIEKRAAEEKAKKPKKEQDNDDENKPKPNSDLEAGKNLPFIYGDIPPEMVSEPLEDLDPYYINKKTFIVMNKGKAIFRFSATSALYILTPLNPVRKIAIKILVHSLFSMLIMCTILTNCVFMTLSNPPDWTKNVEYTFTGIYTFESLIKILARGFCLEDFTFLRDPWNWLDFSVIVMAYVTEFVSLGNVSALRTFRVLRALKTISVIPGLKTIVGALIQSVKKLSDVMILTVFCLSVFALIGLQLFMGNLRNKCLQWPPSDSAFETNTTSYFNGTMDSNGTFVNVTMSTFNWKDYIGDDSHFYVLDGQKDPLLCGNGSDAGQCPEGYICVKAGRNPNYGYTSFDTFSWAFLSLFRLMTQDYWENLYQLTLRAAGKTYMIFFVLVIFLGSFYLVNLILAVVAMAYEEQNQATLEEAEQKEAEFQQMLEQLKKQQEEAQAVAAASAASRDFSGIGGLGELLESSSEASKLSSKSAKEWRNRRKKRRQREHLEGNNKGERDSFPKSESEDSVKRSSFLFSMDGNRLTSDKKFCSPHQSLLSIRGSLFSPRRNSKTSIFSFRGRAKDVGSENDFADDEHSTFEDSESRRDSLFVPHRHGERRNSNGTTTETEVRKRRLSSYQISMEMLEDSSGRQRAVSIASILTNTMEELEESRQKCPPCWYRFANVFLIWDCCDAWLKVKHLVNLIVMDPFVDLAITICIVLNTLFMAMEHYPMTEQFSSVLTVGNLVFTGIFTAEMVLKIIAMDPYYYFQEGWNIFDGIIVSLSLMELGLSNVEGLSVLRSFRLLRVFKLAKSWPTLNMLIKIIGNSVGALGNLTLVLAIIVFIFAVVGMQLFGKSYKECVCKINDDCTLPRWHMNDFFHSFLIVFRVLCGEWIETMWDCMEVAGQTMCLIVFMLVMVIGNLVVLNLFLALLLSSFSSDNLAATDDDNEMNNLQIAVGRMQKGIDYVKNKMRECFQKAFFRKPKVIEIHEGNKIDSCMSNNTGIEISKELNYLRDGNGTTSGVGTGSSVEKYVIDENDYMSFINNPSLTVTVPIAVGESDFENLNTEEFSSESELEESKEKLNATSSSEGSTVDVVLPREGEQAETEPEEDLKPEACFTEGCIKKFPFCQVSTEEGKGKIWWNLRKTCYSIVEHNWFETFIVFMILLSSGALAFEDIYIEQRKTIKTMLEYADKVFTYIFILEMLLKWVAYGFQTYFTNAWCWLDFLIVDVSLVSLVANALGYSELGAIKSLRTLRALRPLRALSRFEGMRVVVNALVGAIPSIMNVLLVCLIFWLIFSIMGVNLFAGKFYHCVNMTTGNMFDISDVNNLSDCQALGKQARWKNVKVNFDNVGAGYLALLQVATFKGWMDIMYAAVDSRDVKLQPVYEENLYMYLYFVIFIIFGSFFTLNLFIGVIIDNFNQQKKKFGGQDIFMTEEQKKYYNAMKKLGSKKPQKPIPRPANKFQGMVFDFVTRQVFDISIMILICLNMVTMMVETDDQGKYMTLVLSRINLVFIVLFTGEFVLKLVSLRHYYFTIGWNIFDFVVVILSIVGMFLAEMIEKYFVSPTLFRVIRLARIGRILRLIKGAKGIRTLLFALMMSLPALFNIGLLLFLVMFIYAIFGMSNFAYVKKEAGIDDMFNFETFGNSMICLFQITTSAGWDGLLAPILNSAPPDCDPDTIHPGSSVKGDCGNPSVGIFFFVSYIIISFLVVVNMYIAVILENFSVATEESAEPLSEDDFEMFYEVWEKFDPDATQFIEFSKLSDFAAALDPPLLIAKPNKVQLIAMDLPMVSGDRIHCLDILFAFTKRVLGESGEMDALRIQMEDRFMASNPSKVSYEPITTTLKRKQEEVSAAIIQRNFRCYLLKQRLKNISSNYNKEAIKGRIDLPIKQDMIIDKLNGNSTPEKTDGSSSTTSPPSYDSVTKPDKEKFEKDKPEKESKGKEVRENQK
T1 sequence (Q07699 19-218 partner): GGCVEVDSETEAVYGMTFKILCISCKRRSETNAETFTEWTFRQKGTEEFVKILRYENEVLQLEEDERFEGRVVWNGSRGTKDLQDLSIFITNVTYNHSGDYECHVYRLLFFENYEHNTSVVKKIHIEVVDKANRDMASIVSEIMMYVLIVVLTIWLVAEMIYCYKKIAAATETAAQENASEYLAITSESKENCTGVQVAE
T1 sequence (O60939 30-215 partner): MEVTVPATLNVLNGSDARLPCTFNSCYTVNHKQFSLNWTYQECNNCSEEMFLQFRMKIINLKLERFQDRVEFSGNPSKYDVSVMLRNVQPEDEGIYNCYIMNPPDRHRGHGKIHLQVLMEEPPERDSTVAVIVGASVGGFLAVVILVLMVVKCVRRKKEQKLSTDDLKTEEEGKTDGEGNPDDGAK

Compound	inhibition at 1 µM (hNav1.3 (SCN3A)) [%]	Rabbit ST Segment (Percent reduction) [1] [Percent reduction]	Plasma concentration [2] [µM]
Fc1cc(C(F)(F)F)ccc1-c1ccc2onc(OCc3ncccn3)c2c1 [Example 6, 5-(2-fluoro-4-(trifluoromethyl)phenyl)-3-(pyrimidin-2-ylmethoxy)benzo[d]isoxazole]	< 5	0	0.8
FC(F)(F)Oc1ccc(-c2ccc3onc(OCCn4cncn4)c3c2)cc1 [Example 58, 3-(2-(1H-1,2,4-triazol-1-yl)ethoxy)-5-(4-(trifluoromethoxy)phenyl)benzo[d]isoxazole]	–	14	1.3
O=C1CCCN1CCOc1noc2ccc(-c3ccc(OC(F)(F)F)cc3)cc12 [Example 59, 1-(2-((5-(4-(trifluoromethoxy)phenyl)benzo[d]isoxazol-3-yl)oxy)ethyl)pyrrolidin-2-one]	14.5	23	1.3
Fc1cc(-c2ccc3onc(OCc4ncccn4)c3c2)ccc1Cl [Example 8, 5-(4-chloro-3-fluorophenyl)-3-(pyrimidin-2-ylmethoxy)benzo[d]isoxazole]	6.4	–	–
FC(F)(F)Oc1ccc(-c2ccc3onc(OCc4ncccn4)c3c2)cc1 [Example 1, 3-(pyrimidin-2-ylmethoxy)-5-(4-(trifluoromethoxy)phenyl)benzo[d]isoxazole]	–	32	1
Cc1cc(-c2ccc3onc(OCc4ncccn4)c3c2)ccc1OC(F)(F)F [Example 7, 5-(3-methyl-4-(trifluoromethoxy)phenyl)-3-(pyrimidin-2-ylmethoxy)benzo[d]isoxazole]	< 5	–	–
COc1cc(OC(F)(F)F)ccc1-c1ccc2onc(OCc3ncccn3)c2c1 [Example 4, 5-(2-methoxy-4-(trifluoromethoxy)phenyl)-3-(pyrimidin-2-ylmethoxy)benzo[d]isoxazole]	12.2	–	–
FC(F)(F)Oc1ccc(-c2ccc3onc(OCc4nnc(C5CC5)o4)c3c2)cc1 [Example 96, 3-((5-cyclopropyl-1,3,4-oxadiazol-2-yl)methoxy)-5-(4-(trifluoromethoxy)phenyl)benzo[d]isoxazole]	–	46	1
Cc1nnc(COc2noc3ccc(-c4ccc(OC(F)(F)F)cc4)cc23)o1 [Example 99, 3-((5-methyl-1,3,4-oxadiazol-2-yl)methoxy)-5-(4-(trifluoromethoxy)phenyl)benzo[d]isoxazole]	41.4	–	–
Cc1ccnc(COc2noc3ccc(-c4ccc(OC(F)(F)F)cc4)cc23)n1 [Example 5, 3-((4-methylpyrimidin-2-yl)methoxy)-5-(4-(trifluoromethoxy)phenyl)benzo[d]isoxazole]	13.9	0	1.4
COc1cc(-c2ccc(OC(F)(F)F)cc2)cc2c(OCc3ncccn3)noc12 [Example 22, 7-methoxy-3-(pyrimidin-2-ylmethoxy)-5-(4-(trifluoromethoxy)phenyl)benzo[d]isoxazole]	17.3	–	–
CC(COc1noc2ccc(-c3ccc(OC(F)(F)F)cc3)cc12)n1cccn1 (stereo not shown) [Example 68, 3-(2-(1H-pyrazol-1-yl)propoxy)-5-(4-(trifluoromethoxy)phenyl)benzo[d]isoxazole]	27.1	–	–
FC(F)(F)Oc1cccc(-c2ccc3onc(OCc4ncccn4)c3c2)c1 [Example 10, 3-(pyrimidin-2-ylmethoxy)-5-(3-(trifluoromethoxy)phenyl)benzo[d]isoxazole]	8.5	–	–
